These results are taken from ChEMBL document CHEMBL1155057, “Studies toward the discovery of the next generation of antidepressants. Part 6: Dual 5-HT1A receptor and serotonin transporter affinity within a class of arylpiperazinyl-cyclohexyl indole derivatives” (Bioorg Med Chem, 2008).

The target of test [1] is Sodium-dependent serotonin transporter (Rattus norvegicus, UniProt P31652).
Test [2] addresses T1, 5-hydroxytryptamine receptor 1A (Homo sapiens, UniProt P08908).
T1 sequence (P08908 whole entry): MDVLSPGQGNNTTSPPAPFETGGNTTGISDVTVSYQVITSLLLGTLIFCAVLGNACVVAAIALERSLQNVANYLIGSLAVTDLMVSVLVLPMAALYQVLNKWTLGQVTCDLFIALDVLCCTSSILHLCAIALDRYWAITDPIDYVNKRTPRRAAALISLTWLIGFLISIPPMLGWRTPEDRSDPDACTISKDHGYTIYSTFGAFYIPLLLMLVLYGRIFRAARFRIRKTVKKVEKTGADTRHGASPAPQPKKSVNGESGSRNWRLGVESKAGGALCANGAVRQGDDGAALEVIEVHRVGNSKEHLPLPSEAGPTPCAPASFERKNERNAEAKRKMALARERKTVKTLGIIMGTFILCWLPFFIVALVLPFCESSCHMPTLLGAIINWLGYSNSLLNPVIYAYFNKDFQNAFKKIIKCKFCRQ
Briefly: biochemical.

The target of test [3] is T2, 5-hydroxytryptamine receptor 1A (Homo sapiens) (UniProt P08908).
T2 sequence (whole entry): T1 sequence (P08908 whole entry)
In words: Intrinsic activity at human 5HT1A receptor expressed in CHO cells by GTPgammaS binding assay relative to serotonin. It counts as functional, cell-based.

Test [4] concerns the target Sodium-dependent serotonin transporter (Rattus norvegicus) (UniProt P31652). In words: Displacement of [3H]paroxetine from rat cortical 5HTT reuptake site at 1 uM.
Test [5] shares this target. Briefly: Displacement of [3H]paroxetine from rat cortical 5HTT reuptake site at 100 nM.
Test [6] addresses T2, 5-hydroxytryptamine receptor 1A (Homo sapiens). Briefly: Displacement of [3H]8-OH-DPAT from human 5HT1A receptor expressed in CHO cells at 1 uM. It counts as cell-based.
The species entered for test [7] is Rattus norvegicus. Particulars: 100 nM.
Description: Displacement of 3H]paroxetine from rat cortical alpha1 adrenergic receptor at 100 nM

SMILES strings stand for the structures.

Chain of Sodium-dependent serotonin transporter (Rattus norvegicus) (P31652 whole entry): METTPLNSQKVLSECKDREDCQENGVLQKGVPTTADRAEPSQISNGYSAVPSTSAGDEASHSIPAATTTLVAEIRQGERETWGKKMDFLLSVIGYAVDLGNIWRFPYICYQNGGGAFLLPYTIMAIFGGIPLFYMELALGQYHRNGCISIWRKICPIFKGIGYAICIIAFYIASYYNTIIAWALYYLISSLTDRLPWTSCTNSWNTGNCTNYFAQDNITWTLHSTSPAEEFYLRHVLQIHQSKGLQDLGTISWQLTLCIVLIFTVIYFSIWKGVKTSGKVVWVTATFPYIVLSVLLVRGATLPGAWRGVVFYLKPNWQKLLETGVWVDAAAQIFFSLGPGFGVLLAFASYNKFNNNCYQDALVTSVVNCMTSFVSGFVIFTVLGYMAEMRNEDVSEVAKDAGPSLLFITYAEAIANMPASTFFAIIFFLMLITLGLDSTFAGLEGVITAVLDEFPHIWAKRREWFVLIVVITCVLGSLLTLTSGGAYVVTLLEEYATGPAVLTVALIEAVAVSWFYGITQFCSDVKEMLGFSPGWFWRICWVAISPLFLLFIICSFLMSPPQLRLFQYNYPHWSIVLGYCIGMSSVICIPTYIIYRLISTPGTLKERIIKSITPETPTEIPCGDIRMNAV
Chain of Sodium-dependent serotonin transporter (P31652 whole entry): as above

Regarding `N#Cc1ccc2[nH]cc([C@H]3CC[C@H](N4CCN(c5cccc6ncccc56)CC4)CC3)c2c1`, the Ki in test [1] turned out to be 4.9 nM; in test [2], 6.2 nM. The Emax in test [3] worked out at 3%.

With `Cn1cc([C@H]2CC[C@@H](N3CCN(c4cccc5[nH]ccc45)CC3)CC2)c2cc(F)ccc21`, the Ki in test [1] was found to be 11.6 nM; in test [2] it was 124 nM.

In turn, `Clc1ccc2[nH]cc([C@H]3CC[C@H](N4CCN(c5cccc6[nH]ccc56)CC4)CC3)c2c1` showed an inhibition in test [4] of 20%.

For the compound `N#Cc1ccc2[nH]cc([C@H]3CC[C@H](N4CCN(c5cccc6nccnc56)CC4)CC3)c2c1`, the Ki in test [1] amounted to 13.6 nM; in test [2], 9.1 nM. The compound also yielded a maximum response (Emax) in test [3] of 11%.

On to `C1=Nc2cccc(N3CCN([C@H]4CC[C@@H](c5c[nH]c6ncccc65)CC4)CC3)c2C1`, for which the inhibition in test [5] turned out to be 0%. The same compound had a Ki in test [2] of 15.8 nM.

`COc1ccc2[nH]cc([C@H]3CC[C@@H](N4CCN(c5cccc6[nH]ccc56)CC4)CC3)c2c1` registered an inhibition in test [5] of 25%.

`Fc1ccc2[nH]cc([C@H]3CC[C@@H](N4CCN(c5cccc6cccnc56)CC4)CC3)c2c1` displayed a maximum response (Emax) in test [3] of 20%.

Compound `Clc1ccc2[nH]cc([C@H]3CC[C@@H](N4CCN(c5cccc6[nH]ccc56)CC4)CC3)c2c1` displayed an inhibition in test [5] of 28%.

In test [1], `N#Cc1ccc2[nH]cc([C@H]3CC[C@@H](N4CCN(c5cccc6cccnc56)CC4)CC3)c2c1` gave an inhibition constant (Ki) of 1.3 nM. The Emax in test [3] stood at 23%.

With `c1cc(N2CCN([C@H]3CC[C@@H](c4c[nH]c5ccccc54)CC3)CC2)c2cc[nH]c2c1`, the Emax in test [3] was 0%.

As to `CC(C)n1cc([C@H]2CC[C@H](N3CCN(c4cccc5[nH]ccc45)CC3)CC2)c2cc(C#N)ccc21`, the inhibition in test [5] was 16%; in test [6] it was 46%.

The compound `N#Cc1ccc2[nH]cc([C@H]3CC[C@H](N4CCN(c5cccc6cccnc56)CC4)CC3)c2c1` came in with a Ki in test [1] of 20 nM. The compound also yielded an Emax in test [3] of 0%.

For `FC(F)(F)c1nc2c(N3CCN([C@H]4CC[C@@H](c5c[nH]c6ccccc65)CC4)CC3)cccc2[nH]1`, the Ki in test [1] is 105 nM; in test [2], 16.1 nM. Also, the Emax in test [3] was 0%.

Regarding `Fc1ccc2[nH]cc([C@H]3CC[C@H](N4CCN(c5cccc6ncccc56)CC4)CC3)c2c1`, the values for the Ki in test [1] and in test [2] were 73 nM and 8.3 nM, respectively. The Emax in test [3] worked out at 0%.

As to `N#Cc1ccc2[nH]cc([C@H]3CC[C@H](N4CCN(c5cccc6[nH]ccc56)CC4)CC3)c2c1`, the Ki in test [1] was 8.5 nM. Also, in test [3], the maximal response (Emax) is 11%.

With `c1cc(N2CCN([C@H]3CC[C@H](c4c[nH]c5ccccc54)CC3)CC2)c2cc[nH]c2c1`, in test [2], the affinity corresponds to a Ki of 5.3 nM.

In test [3], `Fc1ccc2[nH]cc([C@H]3CC[C@H](N4CCN(c5cccc6cccnc56)CC4)CC3)c2c1` registered an Emax of 66%.

Regarding `Fc1ccc2[nH]cc([C@H]3CC[C@@H](N4CCN(c5cccc6ccccc56)CC4)CC3)c2c1`, in test [6], the inhibition amounted to 46%. The compound further showed a Ki in test [1] of 640 nM. Moreover, the Emax in test [3] turned out to be 34%.

Compound `N#Cc1ccc2[nH]cc([C@H]3CC[C@@H](N4CCN(c5cccc6[nH]ccc56)CC4)CC3)c2c1` showed a Ki in test [1] of 1.6 nM. Besides, the Emax in test [3] was 0%.

For the compound `CC(C)n1cc([C@H]2CC[C@@H](N3CCN(c4cccc5[nH]ccc45)CC3)CC2)c2cc(C#N)ccc21`, the affinity in test [1] corresponds to a Ki of 38.5 nM. That is a double-digit nanomolar value.

As to `Cc1[nH]c2ccccc2c1[C@H]1CC[C@@H](N2CCN(c3cccc4[nH]ccc34)CC2)CC1`, in test [5], the inhibition worked out at 4%.

`COc1ccc2[nH]cc([C@H]3CC[C@H](N4CCN(c5cccc6[nH]ccc56)CC4)CC3)c2c1` registered an inhibition in test [4] of 45%. Also, the affinity in test [2], expressed as Ki, was 2.9 nM.

As for `CCCn1cc([C@H]2CC[C@H](N3CCN(c4cccc5[nH]ccc45)CC3)CC2)c2cc(C#N)ccc21`, the inhibition in test [6] worked out at 46%.

On to `c1cc(N2CCN([C@H]3CC[C@@H](c4c[nH]c5ccccc54)CC3)CC2)c2nc[nH]c2c1`, for which the figures for the Ki in test [1] and in test [2] were 13 nM and 7.9 nM, respectively. The Emax in test [3] was 0%.

Take `Fc1ccc2[nH]cc([C@H]3CC[C@H](N4CCN(c5cccc6[nH]ccc56)CC4)CC3)c2c1`: the inhibition in test [7] worked out at 16%.

`N#Cc1ccc2[nH]cc([C@H]3CC[C@@H](N4CCN(c5cccc6ncccc56)CC4)CC3)c2c1`: the figures for the Ki in test [1] and in test [2] were 3.5 nM and 58.1 nM, respectively. In test [3], this compound registered an Emax of 0%.

As to `Cn1cc([C@H]2CC[C@H](N3CCN(c4cccc5[nH]ccc45)CC3)CC2)c2cc(F)ccc21`, the Ki came to 67.5 nM in test [1] and 90 nM in test [2].

For `Cc1nc2c(N3CCN([C@H]4CC[C@@H](c5c[nH]c6ccccc65)CC4)CC3)cccc2[nH]1`, the Ki in test [1] was 61 nM; in test [2], 10.7 nM. In test [3], this compound yielded a maximal effect (Emax) of 0%.

As for `C1=Nc2cccc(N3CCN([C@H]4CC[C@H](c5c[nH]c6ncccc65)CC4)CC3)c2C1`, the inhibition in test [5] is 18%. Also, the Ki in test [2] came out at 7.8 nM.

`Fc1ccc2c(c1)[nH]cc2[C@H]1CC[C@@H](N2CCN(c3cccc4[nH]ccc34)CC2)CC1` gave an Emax in test [3] of 0%.

With `FC(F)(F)c1nc2c(N3CCN([C@H]4CC[C@H](c5c[nH]c6ccccc65)CC4)CC3)cccc2[nH]1`, the Ki is 75 nM in test [1] and 3.6 nM in test [2]. In addition, the Emax in test [3] came to 29%.

Take `N#Cc1ccc2[nH]cc([C@H]3CC[C@@H](N4CCN(c5cccc6nccnc56)CC4)CC3)c2c1`: the Ki is 1.1 nM in test [1] and 156 nM in test [2]. This compound also gave an Emax in test [3] of 0%.

`Fc1cccc2[nH]cc([C@H]3CC[C@@H](N4CCN(c5cccc6[nH]ccc56)CC4)CC3)c12` had an inhibition in test [5] of 27%.

For `Fc1ccc2[nH]cc([C@H]3CC[C@@H](N4CCN(c5cccc6ncccc56)CC4)CC3)c2c1`, the inhibitory constant (Ki) in test [1] was determined as 13.8 nM; in test [2], 97.2 nM. The Emax in test [3] was determined as 0%.

On to `Fc1ccc2[nH]cc([C@H]3CC[C@H](N4CCN(c5cccc6ccccc56)CC4)CC3)c2c1`, for which, in test [4], the inhibition amounted to 38%. In addition, the Ki in test [2] turned out to be 42.6 nM. For the same compound, the Emax in test [3] was found to be 71%.

In the case of `Cc1[nH]c2ccccc2c1[C@H]1CC[C@H](N2CCN(c3cccc4[nH]ccc34)CC2)CC1`, in test [5], the inhibition is 12%.

With `Cc1nc2c(N3CCN([C@H]4CC[C@H](c5c[nH]c6ccccc65)CC4)CC3)cccc2[nH]1`, the Ki came out at 115 nM in test [1] and 3 nM in test [2]. The Emax in test [3] was 0%.

Compound `Fc1cccc2[nH]cc([C@H]3CC[C@H](N4CCN(c5cccc6[nH]ccc56)CC4)CC3)c12` had an inhibition in test [5] of 0%.

On to `c1cc(N2CCN([C@H]3CC[C@H](c4c[nH]c5ccccc54)CC3)CC2)c2nc[nH]c2c1`, for which the values for the Ki in test [1] and in test [2] were 75 nM and 1.7 nM, respectively. Besides, the maximum response (Emax) in test [3] amounted to 0%.

For `Fc1ccc2c(c1)[nH]cc2[C@H]1CC[C@H](N2CCN(c3cccc4[nH]ccc34)CC2)CC1`, the Ki in test [2] came to 5.4 nM.
